From patent publication US6538106B1, “Compositions and methods for treating infections using analogues of indolicidin” (priority 1996, dated 2003)
Values joined by “and” are separate entries in the source; they are usually repeats but may differ in a detail not shown here. Equal entries are not always repeated. Where two headings read alike, the source gives them in different places.

Tests used:
Format in all cases: cell-based
P. aeruginosa = assay: Synergy assay (agarose dilution, FIC); conditions: for Mupirocin Comb. MIC: MIC of Mupirocin in combination with the peptide; for Peptide Comb. MIC: MIC of peptide in combination with Mupirocin
Description: (§1) Briefly, one assay for in vitro anti-bacterial activity, the agarose dilution assay, is set up with an array of plates that each contain a combination of peptide analogue and antibiotic in various concentrations. The plates are inoculated with bacterial isolates, incubated, and the MICs of the components recorded. […] Antibiotics used in testing include, but are not limited to, penicillins, cephalosporins, carbacephems, cephamycins, carbapenems, monobactams, aminoglycosides, glycopeptides, quinolones, tetracyclines, macrolides, and fluoroquinolones (see Table 1 below).
(§2) Synergy is calculated according to the formula below. An FIC of ≦0.5 is evidence of synergy, although combinations with higher values may be therapeutically useful. [formula]
(§3) Treatment with a combination of peptide analogues and conventional antibiotics can have a synergistic effect. Synergy is assayed using the agarose dilution technique, where an array of plates, each containing a combination of peptide and antibiotic in a unique concentration mix, is inoculated with the bacterial isolates. Synergy is investigated for peptide analogues in combination with a number of conventional antibiotics including, but not limited to, penicillins, cephalosporins, carbapenems, monobactams, aminoglycosides, macrolides, fluoroquinolones.
(§4) Synergy is expressed as a Fractional Inhibitory Concentration (FIC), which is calculated according to the equation below. An FIC of less than or equal to 0.5 is evidence of synergy, although combinations with higher values may be therapeutically useful. [formula]

P. vulgaris = assay: Synergy assay (agarose dilution, FIC); conditions: P. vulgaris SBPV1; for Mupirocin Comb. MIC: MIC of Mupirocin in combination with the peptide; for Peptide Comb. MIC: MIC of peptide in combination with Mupirocin; for FIC: peptide + Mupirocin; for Peptide MIC: peptide alone
Description: as §1, §2, §3, §4

E. faecalis = assay: Synergy assay (agarose dilution, FIC); conditions: E. faecalis EFS8; for Mupirocin Comb. MIC: MIC of Mupirocin in combination with the peptide; for Peptide Comb. MIC: MIC of peptide in combination with Mupirocin; for FIC: peptide + Mupirocin; for Peptide MIC: peptide alone
Description: as §1, §2, §3, §4

S. aureus = assay: Synergy assay (agarose dilution, FIC); conditions: for Mupirocin Comb. MIC: MIC of Mupirocin in combination with the peptide; for Peptide Comb. MIC: MIC of peptide in combination with Mupirocin; for Peptide MIC: peptide alone; for Ciprofloxacin Comb. MIC: MIC of Ciprofloxacin in combination with the peptide; for Peptide Comb MIC: MIC of peptide in combination with Ciprofloxacin
Description: as §1, §2
as §3, with “Synergy” for “Treatment with a combination of peptide analogues and conventional antibiotics can have a synergistic effect. Synergy”
as §4

bacteria = test system: bacteria
S. marcescens = assay: Synergy assay (agarose dilution, FIC); conditions: for Mupirocin Comb. MIC: MIC of Mupirocin in combination with the peptide; for Peptide Comb. MIC: MIC of peptide in combination with Mupirocin; for FIC: peptide + Mupirocin; for Peptide MIC: peptide alone
Description: as §1, §2, §3, §4

E. coli = assay: Synergy assay (agarose dilution, FIC); conditions: for Mupirocin Comb. MIC: MIC of Mupirocin in combination with the peptide; for Peptide Comb. MIC: MIC of peptide in combination with Mupirocin; for FIC: peptide + Mupirocin; for Peptide MIC: peptide alone
Description: as §1, §2, §3, §4

S. epidermidis = assay: Broth dilution assay (MIC); conditions: S. epidermidis SE005
Description: This assay also uses calcium and magnesium supplemented Mueller Hinton broth as the growth medium. Typically 100 μl of broth is dispensed into each well of a 96-well microtitre plate and 100 μl volumes of two-fold serial dilutions of the peptide analogue are made across the plate. One row of wells receives no peptide and is used as a growth control. Each well is inoculated with approximately 5×10^5 CFU of bacteria and the plate is incubated at 35-37° C. for 16-20 hours.
For example, MIC values were established for a series of peptide analogues against S. aureus strains.

[1] = P. aeruginosa PA3, peptide + Mupirocin
[2] = S. aureus SBSA3, peptide + Mupirocin
[3] = S. aureus SBSA4, peptide + Mupirocin

C/C(=C\C(=O)OCCCCCCCCC(=O)O)C[C@@H]1OC[C@H](C[C@@H]2O[C@H]2[C@@H](C)[C@H](C)O)[C@@H](O)[C@H]1O [Mupirocin, reference compound]
Mupirocin MIC (P. aeruginosa; P. aeruginosa PA24, Mupirocin alone): >100 µg/mL
MIC (P. vulgaris; Proteus vulgaris, Mupirocin alone): 3 µg/mL
MIC (E. faecalis; Enterococcus faecalis, Mupirocin alone): 100 µg/mL
MIC (S. aureus; Staphylococcus aureus, S. aureus SBSA5, Mupirocin alone): 30 µg/mL

K R R W V W W V W R L I [MBI 11F4CNR]
MIC (bacteria; S. epidermidis SE010): 8 µg/mL

I L K K Y P Y Y P Y R R K [MBI 11A3CN]
Mupirocin Comb. MIC (S. marcescens; S. marcescens SBSM2): >100 µg/mL
Peptide Comb. MIC (S. marcescens; S. marcescens SBSM2): >128 µg/mL
FIC (S. marcescens; S. marcescens SBSM2): 2
Mupirocin Comb. MIC (E. coli; E. coli SBECO1): 30 µg/mL
Peptide Comb. MIC (E. coli; E. coli SBECO1): 8 µg/mL
FIC (E. coli; E. coli SBECO1): 0.43
Mupirocin Comb. MIC (P. aeruginosa; P. aeruginosa PA3): >100 µg/mL
Peptide Comb. MIC (P. aeruginosa; P. aeruginosa PA3): >128 µg/mL
FIC (P. aeruginosa; [1]): 2
Mupirocin Comb. MIC (E. faecalis): 100 µg/mL
Peptide Comb. MIC (E. faecalis): >128 µg/mL
FIC (E. faecalis): 2
Mupirocin Comb. MIC (S. aureus; S. aureus SBSA2): >100 µg/mL
Peptide Comb. MIC (S. aureus; S. aureus SBSA2): 128 µg/mL
FIC (S. aureus; S. aureus SBSA2, peptide + Mupirocin): 2

I L K K W P W W P W R K [MBI 11B4CN]
Mupirocin Comb. MIC (S. marcescens; S. marcescens SBSM1): >100 µg/mL
Peptide Comb. MIC (S. marcescens; S. marcescens SBSM1): >128 µg/mL
FIC (S. marcescens; S. marcescens SBSM1): 2
Peptide MIC (S. marcescens; S. marcescens SBSM1): >128 µg/mL
Mupirocin Comb. MIC (E. coli; E. coli ECO1): 10 µg/mL
Peptide Comb. MIC (E. coli; E. coli ECO1): 4 µg/mL
FIC (E. coli; E. coli ECO1): 0.26
Peptide MIC (E. coli; E. coli ECO1): 16 µg/mL
Mupirocin Comb. MIC (E. faecalis): 100 µg/mL
Peptide Comb. MIC (E. faecalis): 64 µg/mL
FIC (E. faecalis): 2
Peptide MIC (E. faecalis): 64 µg/mL
Mupirocin Comb. MIC (S. aureus; S. aureus SBSA3): 10 µg/mL
Peptide Comb. MIC (S. aureus; S. aureus SBSA3): 16 µg/mL
FIC (S. aureus; [2]): 0.60
Peptide MIC (S. aureus; S. aureus SBSA3): 32 µg/mL
Mupirocin Comb. MIC (S. aureus; S. aureus SBSA4): >100 µg/mL
Peptide Comb. MIC (S. aureus; S. aureus SBSA4): 8 µg/mL
FIC (S. aureus; [3]): 2
Peptide MIC (S. aureus; S. aureus SBSA4): 8 µg/mL

I L K K F P F F P F R R K [MBI 11A1CN]
Mupirocin Comb. MIC (S. marcescens; S. marcescens SBSM1): >100 µg/mL
Peptide Comb. MIC (S. marcescens; S. marcescens SBSM1): >128 µg/mL
FIC (S. marcescens; S. marcescens SBSM1): 2
Mupirocin Comb. MIC (E. coli; E. coli ECO1): 10 µg/mL
Peptide Comb. MIC (E. coli; E. coli ECO1): 4 µg/mL
FIC (E. coli; E. coli ECO1): 0.14
Mupirocin Comb. MIC (P. aeruginosa; P. aeruginosa PA3): >100 µg/mL
Peptide Comb. MIC (P. aeruginosa; P. aeruginosa PA3): >128 µg/mL
FIC (P. aeruginosa; [1]): 2
Mupirocin Comb. MIC (E. faecalis): 100 µg/mL
Peptide Comb. MIC (E. faecalis): >128 µg/mL
FIC (E. faecalis): 2
MIC (S. epidermidis): 16 µg/mL
Mupirocin Comb. MIC (S. aureus; S. aureus SBSA3): 100 µg/mL
Peptide Comb. MIC (S. aureus; S. aureus SBSA3): >128 µg/mL
FIC (S. aureus; [2]): 2
Mupirocin Comb. MIC (S. aureus; S. aureus SBSA5): 10 µg/mL
Peptide Comb. MIC (S. aureus; S. aureus SBSA5): 32 µg/mL
FIC (S. aureus; S. aureus SBSA5, peptide + Mupirocin): 0.58

W R I W K P K W R L P K W [MBI 11D18CN]
Mupirocin Comb. MIC (S. marcescens; S. marcescens SBSM1): 30 µg/mL
Peptide Comb. MIC (S. marcescens; S. marcescens SBSM1): 64 µg/mL
FIC (S. marcescens; S. marcescens SBSM1): 0.28
Peptide MIC (S. marcescens; S. marcescens SBSM1): >128 µg/mL
Mupirocin Comb. MIC (E. coli; E. coli SBECO2): 10 µg/mL
Peptide Comb. MIC (E. coli; E. coli SBECO2): 1 µg/mL
FIC (E. coli; E. coli SBECO2): 0.07
Peptide MIC (E. coli; E. coli SBECO2): 16 µg/mL
Mupirocin Comb. MIC (P. aeruginosa; P. aeruginosa PA2): 30 µg/mL
Peptide Comb. MIC (P. aeruginosa; P. aeruginosa PA2): 64 µg/mL
FIC (P. aeruginosa; P. aeruginosa PA2, peptide + Mupirocin): 0.53
Peptide MIC (P. aeruginosa; P. aeruginosa PA2, peptide alone): 128 µg/mL
Ciprofloxacin Comb. MIC (P. aeruginosa; P. aeruginosa PA24, MIC of Ciprofloxacin in combination with the peptide): 4 µg/mL
Mupirocin Comb. MIC (P. aeruginosa; P. aeruginosa PA24): >100 µg/mL
Peptide Comb MIC (P. aeruginosa; P. aeruginosa PA24, MIC of peptide in combination with Ciprofloxacin): 16 µg/mL
Peptide Comb. MIC (P. aeruginosa; P. aeruginosa PA24): >128 µg/mL
FIC (P. aeruginosa; P. aeruginosa PA24, peptide + Ciprofloxacin): 0.31
FIC (P. aeruginosa; P. aeruginosa PA24, peptide + Mupirocin): 2
Peptide MIC (P. aeruginosa; P. aeruginosa PA24, peptide alone (Ciprofloxacin table)): >128 µg/mL
Peptide MIC (P. aeruginosa; P. aeruginosa PA24, peptide alone (Mupirocin table)): >128 µg/mL
Mupirocin Comb. MIC (P. vulgaris): 3 µg/mL
Peptide Comb. MIC (P. vulgaris): 4 µg/mL
FIC (P. vulgaris): 1.13
Peptide MIC (P. vulgaris): 32 µg/mL
Mupirocin Comb. MIC (E. faecalis): 100 µg/mL
Peptide Comb. MIC (E. faecalis): 16 µg/mL
FIC (E. faecalis): 2
Peptide MIC (E. faecalis): 16 µg/mL
Ciprofloxacin Comb. MIC (S. aureus; S. aureus SA10): 32 µg/mL
Peptide Comb MIC (S. aureus; S. aureus SA10): 2 µg/mL
FIC (S. aureus; S. aureus SA10, peptide + Ciprofloxacin): 2.00
Peptide MIC (S. aureus; S. aureus SA10): 2 µg/mL
Ciprofloxacin Comb. MIC (S. aureus; S. aureus SA14): 8 µg/mL
Peptide Comb MIC (S. aureus; S. aureus SA14): 4 µg/mL
FIC (S. aureus; S. aureus SA14, peptide + Ciprofloxacin): 1.00
Peptide MIC (S. aureus; S. aureus SA14): 8 µg/mL
Mupirocin Comb. MIC (S. aureus; S. aureus SBSA4): 0.1 µg/mL
Peptide Comb. MIC (S. aureus; S. aureus SBSA4): 2 µg/mL
FIC (S. aureus; [3]): 0.13
Peptide MIC (S. aureus; S. aureus SBSA4): 16 µg/mL

I L K K W P W W P W K [MBI 11G13CN]
Mupirocin Comb. MIC (S. marcescens; S. marcescens SBSM1): >100 µg/mL
Peptide Comb. MIC (S. marcescens; S. marcescens SBSM1): >128 µg/mL
FIC (S. marcescens; S. marcescens SBSM1): 2
Peptide MIC (S. marcescens; S. marcescens SBSM1): >128 µg/mL
Mupirocin Comb. MIC (E. coli; E. coli ECO5): 30 µg/mL
Peptide Comb. MIC (E. coli; E. coli ECO5): 8 µg/mL
FIC (E. coli; E. coli ECO5): 0.43
Peptide MIC (E. coli; E. coli ECO5): 64 µg/mL
Mupirocin Comb. MIC (P. vulgaris): 3 µg/mL
Peptide Comb. MIC (P. vulgaris): >128 µg/mL and 64 µg/mL
FIC (P. vulgaris): 2 and 1.25
Peptide MIC (P. vulgaris): >128 µg/mL
Mupirocin Comb. MIC (S. aureus; S. aureus SBSA3): 100 µg/mL
Peptide Comb. MIC (S. aureus; S. aureus SBSA3): 64 µg/mL
FIC (S. aureus; [2]): 2
Peptide MIC (S. aureus; S. aureus SBSA3): 64 µg/mL

I L K K W P W W P W R R K [MBI 11CAN]
MIC (bacteria; A. calcoaceticus AC002, listed as MBI 11ACN): 2 µg/mL
MIC (bacteria; E. coli ECO005, listed as MBI 11ACN): 16 µg/mL
MIC (bacteria; E. faecalis EFS004, listed as MBI 11ACN): 8 µg/mL
MIC (bacteria; K. pneumoniae KP001, listed as MBI 11ACN): 16 µg/mL
MIC (bacteria; S. epidermidis SE010, listed as MBI 11ACN): 4 µg/mL
MIC (bacteria; S. maltophilia SMA002, listed as MBI 11ACN): 64 µg/mL
